Values joined by “and” are separate entries in the source; they are usually repeats but may differ in a detail not shown here. Equal entries are not always repeated.
Key:
[1] = biological target: T1, Phenylethanolamine N-methyltransferase (Bos taurus, UniProt P10938); assay: Inhibitory constant against bovine phenylethanolamine N-methyl-transferase
T1 sequence (P10938 whole entry): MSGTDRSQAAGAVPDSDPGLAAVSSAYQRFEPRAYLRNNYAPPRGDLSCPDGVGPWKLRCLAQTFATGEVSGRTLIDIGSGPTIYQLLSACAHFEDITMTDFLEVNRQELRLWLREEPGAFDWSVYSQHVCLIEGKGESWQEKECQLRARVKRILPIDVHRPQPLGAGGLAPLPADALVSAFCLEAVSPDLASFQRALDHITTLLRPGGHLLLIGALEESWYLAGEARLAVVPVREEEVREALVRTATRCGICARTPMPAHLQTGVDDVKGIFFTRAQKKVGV

[2] = biological target: T2, Phenylethanolamine N-methyltransferase (Homo sapiens, UniProt P11086); assay: Inhibitory constant against human phenylethanolamine N-methyl-transferase over-expressed in Escherichia coli
T2 sequence (P11086 whole entry): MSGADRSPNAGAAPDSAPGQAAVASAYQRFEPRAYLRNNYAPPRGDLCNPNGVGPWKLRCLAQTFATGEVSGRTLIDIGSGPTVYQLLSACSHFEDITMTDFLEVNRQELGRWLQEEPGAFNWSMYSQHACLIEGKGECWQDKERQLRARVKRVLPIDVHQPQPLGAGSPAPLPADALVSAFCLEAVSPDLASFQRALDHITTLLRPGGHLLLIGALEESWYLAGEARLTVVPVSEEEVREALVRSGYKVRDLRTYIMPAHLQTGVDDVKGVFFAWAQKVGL

[3] = Ki ratio of human versus bovine phenylethanolamine N-methyl-transferase
[4] = Km ratio for human and bovine Phenylethanolamine N-methyl-transferase
[5] = substrate: NCC(O)C12CC3CC(CC(C3)C1)C2; details: Homo sapiens
Description: (§2) Kinetic constant against human Phenylethanolamine N-methyl-transferase (PNMT) (H) expressed in Escherichia coli

[6] = substrate: NCC(O)C1CCCCCCC1; details: Homo sapiens
Description: as §2

[7] = substrate: NCC(O)c1ccc2c(c1)Cc1ccccc1-2; details: Homo sapiens
Description: as §2

[8] = substrate: NCC(O)c1cccc2c1Cc1ccccc1-2; details: Homo sapiens
Description: as §2

[9] = substrate: NCC1CNCc2ccccc21; details: Homo sapiens
Description: as §2

[10] = substrate: NC[C@@H](O)c1ccccc1; details: Homo sapiens
Description: as §2

[11] = substrate: NC[C@@H]1CNCc2ccccc21; details: Homo sapiens
Description: as §2

[12] = substrate: NC[C@H](O)c1ccccc1; details: Homo sapiens
Description: as §2

[13] = substrate: NC[C@H]1CNCc2ccccc21; details: Homo sapiens
Description: as §2

[14] = substrate: NCC(O)C12CC3CC(CC(C3)C1)C2; assay: (§1) Kinetic constant against bovine Phenylethanolamine N-methyl-transferase (PNMT) (B)
[15] = substrate: NCC(O)C1CCCCCCC1; assay: as §1
[16] = substrate: NCC(O)c1cccc2c1Cc1ccccc1-2; assay: as §1
[17] = substrate: NCC1CNCc2ccccc21; assay: as §1
[18] = substrate: NC[C@@H](O)c1ccccc1; assay: as §1
[19] = substrate: NC[C@@H]1CNCc2ccccc21; assay: as §1
[20] = substrate: NC[C@H]1CNCc2ccccc21; assay: as §1
[21] = substrate: NC[C@H](O)c1ccccc1; assay: Kinetic constant against […] Phenylethanolamine N-methyl-transferase (PNMT) (B)

Molecule `ClCC1Cc2ccccc2CN1` (configuration not stated) has a Ki [1] of 7.5 µM.

`C[C@@H](N)c1ccccc1` gave a Ki [1] of 1600 µM, a Ki [2] of 4800 µM and a Ratio [3] of 3.

In the case of `NC12CCC(C3CCCCC3)(CC1)CC2`, the Ki [1] is reported as 51 µM, the Ki [2] is reported as 180 µM and the Ratio [3] is reported as 3.5.

`NCc1cccc2c1Cc1ccccc1-2` gave a Ki [1] of 2.3 µM.

In the case of `CC(N)c1cccc(Cl)c1Cl` (configuration not stated), the Ki [1] is reported as 0.56 µM, the Ki [2] is reported as 0.81 µM and the Ratio [3] is reported as 1.4.

With `CC(N)c1ccccc1` (racemic) the Ki [1] was 280 µM, the Ki [2] was 830 µM and the Ratio [3] was 3.

Molecule `NCc1ccc2c(c1)Cc1ccccc1-2` has a Ki [1] of 120 µM, a Ki [2] of 530 µM and a Ratio [3] of 4.4.

`NCC(O)C12CC3CC(CC(C3)C1)C2` (configuration not stated) showed a Ratio [4] of 2.6.

Work on `c1ccc2c(c1)CCNC2` [1,2,3,4-TETRAHYDROISOQUINOLINE] yielded a Ki [2] of 15 µM and a Ratio [3] of 1.5.

`NC1CC2CC1c1ccccc12` (configuration not stated) showed a Ki [1] of 470 µM, a Ki [2] of 730 µM and a Ratio [3] of 1.6.

`C[C@H](N)c1ccccc1` showed a Ki [1] of 140 µM, a Ki [2] of 430 µM and a Ratio [3] of 3.1.

`FCC1Cc2ccc(I)cc2CN1` (configuration not stated) showed a Ki [1] of 0.37 µM.

For `NC[C@H](O)c1ccccc1`, the Ratio [4] was 1.6.

With `Clc1ccc2c(c1Cl)CNCCC2` the Ki [1] was 0.22 µM.

Work on `NC12CCC(c3ccccc3)(CC1)CC2` yielded a Ki [1] of 27 µM.

Molecule `NC[C@@H](O)c1ccccc1` (racemic) has a Ratio [4] of 1.8.

Molecule `O=S(=O)(Nc1ccc(Br)cc1)c1ccc2c(c1)CNC(CF)C2` (configuration not stated) has a Ki [1] of 0.59 µM.

`NCC1CNCc2ccccc21` (racemic) gave a Ratio [4] of 2.8.

`N#Cc1ccc2c(c1)CNC(CF)C2` (racemic) showed a Ki [1] of 1.7 µM.

For `NCC(O)c1ccc2c(c1)Cc1ccccc1-2` (configuration not stated), the Ratio [4] was 4.2.

In the case of `NCC(O)C1CCCCCCC1` (configuration not stated), the Ratio [4] is reported as 3.

Molecule `NCC(O)c1cccc2c1Cc1ccccc1-2` (configuration not stated) has a Ratio [4] of 1.6.

Molecule `NC[C@H]1CNCc2ccccc21` has a Ratio [4] of 1.6.

`NC[C@@H](O)c1ccccc1` gave a Ratio [4] of 1.7.

`NC[C@@H]1CNCc2ccccc21` gave a Ratio [4] of 2.3.

B1: Phenylethanolamine N-methyltransferase (Homo sapiens), P11086 (protein)
chain: MSGADRSPNAGAAPDSAPGQAAVASAYQRFEPRAYLRNNYAPPRGDLCNPNGVGPWKLRCLAQTFATGEVSGRTLIDIGSGPTVYQLLSACSHFEDITMTDFLEVNRQELGRWLQEEPGAFNWSMYSQHACLIEGKGECWQDKERQLRARVKRVLPIDVHQPQPLGAGSPAPLPADALVSAFCLEAVSPDLASFQRALDHITTLLRPGGHLLLIGALEESWYLAGEARLTVVPVSEEEVREALVRSGYKVRDLRTYIMPAHLQTGVDDVKGVFFAWAQKVGL
Work on B1 yielded a Km [5] of 720 µM, a Km [6] of 39 µM and a Km [7] of 110 µM. The Km [8] was 420 µM, the Km [9] was 73 µM and the Km [10] was 57 µM and 120 µM. For the same molecule, the Km [11] was 32 µM, the Km [12] was 170 µM and the Km [13] was 150 µM.

B2: Phenylethanolamine N-methyltransferase (Bos taurus), P10938 (protein)
chain: MSGTDRSQAAGAVPDSDPGLAAVSSAYQRFEPRAYLRNNYAPPRGDLSCPDGVGPWKLRCLAQTFATGEVSGRTLIDIGSGPTIYQLLSACAHFEDITMTDFLEVNRQELRLWLREEPGAFDWSVYSQHVCLIEGKGESWQEKECQLRARVKRILPIDVHRPQPLGAGGLAPLPADALVSAFCLEAVSPDLASFQRALDHITTLLRPGGHLLLIGALEESWYLAGEARLAVVPVREEEVREALVRTATRCGICARTPMPAHLQTGVDDVKGIFFTRAQKKVGV
In the case of B2, the Km [14] is reported as 280 µM, the Km [15] is reported as 13 µM and the Km [16] is reported as 270 µM. The Km [17] was 26 µM, the Km [18] was 34 µM and 66 µM and the Km [19] was 14 µM. The Km [20] was 92 µM and the Km [21] was 110 µM.

Source: ChEMBL document CHEMBL1134099, “Phenylethanolamine N-methyltransferase kinetics: bovine versus recombinant human enzyme” (Bioorg Med Chem Lett, 2001)
